Laboratory results reported in US20160082087A1, “WHITENING PROMOTING AGENT OR ATOPIC DERMATITIS AMELIORATING AGENT” (NITTA GELATIN INC., priority 2013, published 2016).
Marks after values point to notes of the source that are not given here. Square brackets hold non-standard residues; d marks the D form. Ends that are not written are not given here. Hyp = O=C(O)[C@@H]1C[C@@H](O)CN1

How the values were obtained:
Assay type in all cases: cell-based, human
[1] = system: hyaluronic acid synthase 2 (HAS2); assay: HAS2 expression promotion test (real time PCR); conditions: 0.5 mM, 48 hours, NHEK (NB), control 1.00, GAPDH corrected
Procedure: (§1) A normal human epidermal keratinocyte NHEK (NB) (available from KURABO INDUSTRIES LTD.) was used. The cells were precultured in HuMedia-KG2 (available from KURABO INDUSTRIES LTD.), and 1.5×10^4 cells/mL×5 mL (7.5×10^4 cells/dish) were cultured in a 60 mm laboratory dish for two days. After confirming that the cells were subconfluent, the medium was replaced by 5 mL of HuMedia-KB2 (available from KURABO INDUSTRIES LTD.). Samples were added in respective concentrations, and allowed to react for 24 hours (ET-1, K10), 48 hours (TGM1, ivl, HAS2), and 72 hours (FLG). Total RNA was extracted from the cells, reverse transcribed, and subjected to real time PCR. In the real time PCR, as target genes, endoserine-1 (ET-1; Hs00174961_m1), keratin 10 (K10; Hs01043114_g1), transglutaminase 1 (TGM1; Hs01070310_m1), involucrin (ivl; Hs00846307_s1), filaggrin (FLG; Hs00856927_g1) and hyaluronic acid synthase 2 (HAS2; Hs00193435_m1) were measured. GAPDH was used as a correction gene. Calculation was conducted by using a calibration curve method, and FAM pigment of TaqMan Gene Expression was used in primers and probes.
(§2) For each peptide or the like of Examples 1 to 13 and Comparative Examples 1 to 27, RNA expression amounts of endoserine-1 (ET-1), keratin 10 (K10), transglutaminase 1 (TGM1), involucrin (ivl), filaggrin (FLG) and hyaluronic acid synthase 2 (HAS2) were measured. Values in the tables are each average value±standard deviation, and *, ** and *** denote that they are significant with P<0.05, P<0.01, and P<0.001, respectively with respect to the control in Paired-t-test.

filaggrin (FLG) = assay: FLG expression promotion test (real time PCR); conditions: 0.5 mM, 72 hours, NHEK (NB), control 1.00, GAPDH corrected
Procedure: as §1, §2

endoserine-1 (ET-1) = assay: ET-1 expression suppression test (real time PCR); conditions: 0.5 mM, 24 hours, NHEK (NB), control 1.00, GAPDH corrected
Procedure: as §1, §2

[2] = system: transglutaminase 1 (TGM1); assay: TGM1 expression promotion test (real time PCR); conditions: 0.5 mM, 48 hours, NHEK (NB), control 1.00, GAPDH corrected
Procedure: as §1, §2

keratin 10 (K10) = assay: K10 expression promotion test (real time PCR); conditions: 0.5 mM, 24 hours, NHEK (NB), control 1.00, GAPDH corrected
Procedure: as §1, §2

involucrin (ivl) = assay: ivl expression promotion test (real time PCR); conditions: 0.5 mM, 48 hours, NHEK (NB), control 1.00, GAPDH corrected
Procedure: as §1, §2

Row | Compound | Transglutaminase 1 RNA expression amount [2] | Hyaluronic acid synthase 2 RNA expression amount [1] | Filaggrin RNA expression amount (filaggrin (FLG)) | Endoserine-I RNA expression amount (endoserine-1 (ET-1)) | Keratin 10 RNA expression amount (keratin 10 (K10)) | Involucrin RNA expression amount (involucrin (ivl))
1 | Leu-Hyp [Comparative Example 3] | 0.58 ± 0.01*** | 0.87 ± 0.63 | 0.69 ± 0.58 | 1.08 ± 0.00 | 1.04 ± 0.06 | 0.89 ± 0.09*
2 | Pro-Pro [Comparative Example 5] | 0.64 ± 0.01*** | 0.78 ± 0.64* | 0.66 ± 0.09** | 1.65 ± 0.07* | 0.98 ± 0.16 | 0.56 ± 0.04*
3 | Glu-Hyp [Example 6] | 2.12 ± 0.01*** | 2.35 ± 0.85** | 3.26 ± 1.61** | 0.65 ± 0.02 | 3.48 ± 0.05*** | 1.95 ± 0.08**
4 | (Pro-Hyp-Gly)2 [Example 2] | 7.21 ± 0.03** | 3.11 ± 0.89** | 9.58 ± 1.02*** | 0.43 ± 0.03*** | 5.69 ± 0.28*** | 4.35 ± 0.04***
5 | C[C@H](N)C(=O)O [Comparative Example 12, L-alanine] | 0.95 ± 0.04 | 0.89 ± 0.57 | 0.69 ± 0.02** | 1.58 ± 0.05** | 0.82 ± 0.02* | 0.64 ± 0.15**
6 | N[C@@H](CO)C(=O)O [Comparative Example 13, L-serine] | 0.85 ± 0.02 | 0.81 ± 0.50 | 0.85 ± 0.08 | 1.64 ± 0.07** | 0.69 ± 0.03** | 0.98 ± 0.05
7 | (Pro-Hyp-Gly)5 [Example 1] | 13.50 ± 2.69** | 3.45 ± 1.02** | 11.23 ± 1.56*** | 0.32 ± 0.00* | 6.40 ± 0.06 | 7.96 ± 0.60**
8 | Pro-Ala [Comparative Example 6] | 0.94 ± 0.13 | 0.99 ± 0.68 | 0.63 ± 0.08** | 1.09 ± 0.01** | 0.70 ± 0.04 | 0.81 ± 0.06**
9 | Ala-Hyp [Comparative Example 2] | 0.48 ± 0.02*** | 0.99 ± 0.66 | 0.98 ± 0.95 | 1.23 ± 0.03* | 1.00 ± 0.06 | 1.01 ± 0.00
10 | N[C@@H](CCC(=O)O)C(=O)O [Comparative Example 11, L-glutamic acid] | 0.40 ± 0.01** | 1.06 ± 0.24 | 0.77 ± 0.04* | 1.00 ± 0.02** | 0.65 ± 0.01** | 0.85 ± 0.11
11 | O=C(O)[C@@H]1C[C@@H](O)CN1 [Comparative Example 8, L-hydroxyproline] | 0.94 ± 0.10 | 0.70 ± 0.29 | 0.89 ± 0.09 | 1.52 ± 0.02*** | 0.64 ± 0.02** | 0.94 ± 0.04
12 | N[C@@H](Cc1ccccc1)C(=O)O [Comparative Example 14, L-phenylalanine] | 0.72 ± 0.05** | 0.89 ± 0.84 | 0.59 ± 0.05** | 1.05 ± 0.05 | 0.78 ± 0.07 | 0.87 ± 0.04
13 | O=C(O)[C@@H]1CCCN1 [Comparative Example 7, L-proline] | 1.02 ± 0.13 | 0.84 ± 0.47 | 0.85 ± 0.18 | 1.89 ± 0.06** | 0.73 ± 0.03** | 0.78 ± 0.01**
14 | CC(C)C[C@H](N)C(=O)O [Comparative Example 10, L-leucine] | 0.63 ± 0.07* | 0.76 ± 0.07* | 0.89 ± 0.08 | 1.58 ± 0.05** | 0.62 ± 0.01** | 0.84 ± 0.03

The next lines start with results.

Row | Transglutaminase 1 RNA expression amount [2] | Compound | Hyaluronic acid synthase 2 RNA expression amount [1] | Filaggrin RNA expression amount (filaggrin (FLG)) | Endoserine-I RNA expression amount (endoserine-1 (ET-1)) | Keratin 10 RNA expression amount (keratin 10 (K10)) | Involucrin RNA expression amount (involucrin (ivl))
15 | 2.00 ± 0.02*** | Ala-[Hyp]-Gly [Example 7] | 2.21 ± 0.67** | 3.09 ± 0.23** | 0.52 ± 0.01 | 5.06 ± 0.37*** | 1.36 ± 0.07*
16 | 0.98 ± 0.05 | Gly-Pro-[Hyp] [Comparative Example 1] | 0.98 ± 0.45 | 1.08 ± 0.21 | 1.05 ± 0.11 | 0.94 ± 0.10 | 0.95 ± 0.08
17 | 2.15 ± 0.02** | Gly-Pro [Example 3] | 3.08 ± 0.99** | 7.21 ± 0.95*** | 0.36 ± 0.12** | 2.56 ± 0.22*** | 2.18 ± 0.00***
18 | 1.46 ± 0.02* | Phe-Hyp [Example 11] | 1.63 ± 0.49* | 1.95 ± 0.19* | 0.97 ± 0.16 | 2.22 ± 0.01*** | 1.85 ± 0.00***
19 | 1.69 ± 0.01*** | Glu-[Hyp]-Gly [Example 8] | 2.56 ± 0.45** | 2.92 ± 0.89** | 0.71 ± 0.03 | 2.39 ± 0.02* | 1.89 ± 0.03*
20 | 1.21 ± 0.01 | Ser-[Hyp]-Gly [Example 10] | 2.14 ± 0.89* | 2.29 ± 0.26** | 0.89 ± 0.07* | 1.77 ± 0.04** | 1.59 ± 0.05*
21 | 1.99 ± 0.06* | Hyp-Gly [Example 9] | 2.18 ± 0.67** | 2.98 ± 0.58** | 0.55 ± 0.09** | 1.99 ± 0.13* | 2.04 ± 0.02*
